EPA's CvTdb concentration-time database (doi:10.1093/toxsci/kfy020)

Tests used:
Experiment in all cases: concentration in plasma after dosing
[1] = system: rat; details: dosed: Boscalid, 5.0000000000 mg/kg, oral, male, Sprague-Dawley
[2] = system: rat; details: male, Sprague-Dawley
[3] = system: rat; details: dosed: Boscalid, 1.0000000000 mg/kg, iv, male, Sprague-Dawley
[4] = system: rat; details: dosed: Boscalid, 5.0000000000 mg/kg, oral, male, Sprague-Dawley; remark: listed apart in the source
[5] = system: rat; details: dosed: Boscalid, 1.0000000000 mg/kg, iv, male, Sprague-Dawley; remark: listed apart in the source
[6] = system: rat; details: dosed: Boscalid, 5.0000000000 mg/kg, oral, male, Sprague-Dawley; remark: listed apart in the source
[7] = system: rat; details: dosed: Simazine, 2.0000000000 mg/kg, oral, male, Sprague-Dawley
[8] = system: rat; details: dosed: Simazine, 0.4000000000 mg/kg, iv, male, Sprague-Dawley
[9] = system: rat; details: dosed: Simazine, 2.0000000000 mg/kg, oral, male, Sprague-Dawley; remark: listed apart in the source
[10] = system: rat; details: dosed: Simazine, 0.4000000000 mg/kg, iv, male, Sprague-Dawley; remark: listed apart in the source
[11] = system: rat; details: dosed: Simazine, 0.4000000000 mg/kg, iv, male, Sprague-Dawley; remark: listed apart in the source
[12] = system: rat; details: dosed: Simazine, 2.0000000000 mg/kg, oral, male, Sprague-Dawley; remark: listed apart in the source
[13] = system: rat; details: dosed: Resmethrin, 4.0000000000 mg/kg, oral, male, Sprague-Dawley
[14] = system: rat; details: dosed: Resmethrin, 4.0000000000 mg/kg, oral, male, Sprague-Dawley; remark: listed apart in the source
[15] = system: rat; details: dosed: Resmethrin, 4.0000000000 mg/kg, oral, male, Sprague-Dawley; remark: listed apart in the source
[16] = system: rat; details: dosed: Resmethrin, 0.8000000000 mg/kg, iv, male, Sprague-Dawley
[17] = system: rat; details: dosed: Resmethrin, 0.8000000000 mg/kg, iv, male, Sprague-Dawley; remark: listed apart in the source
[18] = system: rat; details: dosed: Permethrin, 5.0000000000 mg/kg, oral, male, Sprague-Dawley
[19] = system: rat; details: dosed: Permethrin, 1.0000000000 mg/kg, iv, male, Sprague-Dawley
[20] = system: rat; details: dosed: Permethrin, 5.0000000000 mg/kg, oral, male, Sprague-Dawley; remark: listed apart in the source
[21] = system: rat; details: dosed: Permethrin, 5.0000000000 mg/kg, oral, male, Sprague-Dawley; remark: listed apart in the source
[22] = system: rat; details: dosed: Permethrin, 5.0000000000 mg/kg, oral, male, Sprague-Dawley; remark: listed apart in the source
[23] = system: rat; details: dosed: Permethrin, 5.0000000000 mg/kg, oral, male, Sprague-Dawley; remark: listed apart in the source
[24] = system: rat; details: dosed: Permethrin, 1.0000000000 mg/kg, iv, male, Sprague-Dawley; remark: listed apart in the source
[25] = system: rat; details: dosed: Triclosan, 1.0000000000 mg/kg, iv, male, Sprague-Dawley
[26] = system: rat; details: dosed: Triclosan, 1.0000000000 mg/kg, iv, male, Sprague-Dawley; remark: listed apart in the source
[27] = system: rat; details: dosed: Triclosan, 1.0000000000 mg/kg, iv, male, Sprague-Dawley; remark: listed apart in the source
[28] = system: rat; details: dosed: Triclosan, 1.0000000000 mg/kg, iv, male, Sprague-Dawley; remark: listed apart in the source
[29] = system: rat; details: dosed: Triclosan, 1.0000000000 mg/kg, iv, male, Sprague-Dawley; remark: listed apart in the source

O=C(Nc1ccccc1-c1ccc(Cl)cc1)c1cccnc1Cl [Boscalid]
concentration in plasma [ng/mL]
Details | 0.25 h | 0.5 h | 1 h | 2 h | 4 h | 5 min | 8 h | 10 min | 12 h
[1] | 30.5 | 43.1 | 31.9 | 11.5 | 8.5 | – | 16.1 | – | 21.1
[3] | – | 100 | 57.6 | 23.1 | 12.5 | 366 | 6.72 | 262 | –
[4] | 16.7 | 22.5 | 28.9 | 30.9 | 20.2 | – | 22.3 | – | 10.1
[5] | – | 146 | 71.5 | 28.4 | 10.8 | 516 | – | 325 | –
[6] | 29.9 | 36.8 | 18.6 | 14.1 | 5.5 | – | – | – | 8.6

concentration in plasma [ng/mL], [2], dosed: Boscalid
Details | 0.25 h | 0.5 h | 1 h | 2 h | 4 h | 5 min | 8 h | 10 min | 12 h
1.0000000000 mg/kg, iv | – | 131 | 78 | 29.4 | 9.3 | 418 | – | 293 | –
5.0000000000 mg/kg, oral | 47.3 | 81.4 | 65.2 | 24.6 | 13.6 | – | 15.9 | – | 7.5

CCNc1nc(Cl)nc(NCC)n1 [Simazine]
concentration in plasma [ng/mL], [2], dosed: Simazine
Details | 0.25 h | 0.5 h | 1 h | 5 min | 10 min
0.4000000000 mg/kg, iv | – | 43 | 3.7 | 91.6 | 101
2.0000000000 mg/kg, oral | 6.9 | 2.4 | – | – | –

concentration in plasma [ng/mL]
Details | 0.25 h | 0.5 h | 1 h | 2 h | 4 h | 5 min | 10 min
[7] | 68.5 | 23.2 | 5 | 1.2 | – | – | –
[8] | – | 46.6 | 9.7 | 1.1 | – | 52 | 148
[9] | 10.5 | 3.7 | 1.3 | 2.6 | 1.5 | – | –
[10] | – | 34.8 | 5.3 | – | – | 127 | 95.5
[11] | – | 23.2 | 4.5 | – | – | 63.7 | 60.4
[12] | 6.9 | 5 | 1 | 4.6 | 1 | – | –

CC(C)=CC1C(C(=O)OCc2coc(Cc3ccccc3)c2)C1(C)C (centres undefined) [Resmethrin]
concentration in plasma [ng/mL]
Details | 0.25 h | 0.5 h | 1 h | 2 h | 4 h | 5 min | 8 h | 10 min | 12 h
[13] | 13.4 | 11.8 | 44.1 | 12.4 | 5.6 | – | 4 | – | –
[14] | 17.4 | 15.8 | 17.7 | 10.6 | 4.2 | – | 4.6 | – | –
[15] | 7 | 10.7 | 39 | 12.8 | 2.3 | – | 4.7 | – | 1.8
[16] | – | 9.1 | 4.1 | 1 | – | 52.7 | – | 25 | –
[17] | – | 12.1 | 0.7 | 5.6 | – | 52.5 | – | 20.6 | –

concentration in plasma [ng/mL], [2], dosed: Resmethrin
Details | 0.25 h | 0.5 h | 1 h | 2 h | 4 h | 5 min | 8 h | 10 min
0.8000000000 mg/kg, iv | – | 13.9 | 1.6 | 8.1 | – | 72.9 | – | 30.4
4.0000000000 mg/kg, oral | 12.6 | 37.2 | 32.8 | 13.5 | 13.7 | – | 6.1 | –

CC1(C)C(C=C(Cl)Cl)C1C(=O)OCc1cccc(Oc2ccccc2)c1 (centres undefined) [Permethrin]
concentration in plasma [ng/mL]
Details | 0.25 h | 0.5 h | 1 h | 2 h | 4 h | 8 h | 10 min | 12 h
[18] | 21.3 | 15.7 | 18.3 | 21.5 | 28.4 | 15.1 | – | –
[19] | – | – | – | – | – | – | 3 | 2.9
[20] | – | 8.1 | 15.2 | 15.9 | – | – | – | –
[21] | – | 7.1 | 10.5 | 14.9 | 16 | 7.8 | – | 3.3
[22] | – | 37 | 54.2 | 62.2 | 48.5 | 12.3 | 10.1 | 1.5
[23] | – | 33.4 | 87.2 | 40.8 | 27.2 | – | – | –
[24] | – | – | 9.5 | – | 2.1 | – | – | –

concentration in plasma [ng/mL], [2], dosed: Permethrin
Details | 0.5 h | 1 h | 2 h | 4 h | 8 h | 10 min | 12 h | 48 h
1.0000000000 mg/kg, iv | – | 6.7 | – | – | – | 15.9 | – | –
5.0000000000 mg/kg, oral | 44.4 | 64.2 | 71 | 53.2 | 26.1 | 15 | 8.4 | 5.2

Oc1cc(Cl)ccc1Oc1ccc(Cl)cc1Cl [Triclosan]
concentration in plasma [ng/mL]
Details | 0.5 h | 1 h | 2 h | 5 min | 10 min | 72 h
[25] | 5.7 | 10.4 | 5 | 1 | 2.1 | 2.9
[26] | 23.9 | 6.6 | – | 72.7 | 36.7 | –
[27] | 200 | – | – | 903 | 367 | –
[28] | 102 | 24.9 | – | 469 | 374 | –
[29] | 24.8 | 6.4 | – | 270 | 129 | 6.2

[2], dosed: Triclosan, 1.0000000000 mg/kg, iv
Details | concentration in plasma [ng/mL]
0.5 h | 39.6
5 min | 474
10 min | 211
